# In publication PMC8246065 (The EMBO Journal, 2021):
# Like-named read-outs stand apart in the source and are kept apart here.
# Target: T1, NOD1 (Homo sapiens, UniProt Q9Y239)
# T1 sequence (Q9Y239 1-953): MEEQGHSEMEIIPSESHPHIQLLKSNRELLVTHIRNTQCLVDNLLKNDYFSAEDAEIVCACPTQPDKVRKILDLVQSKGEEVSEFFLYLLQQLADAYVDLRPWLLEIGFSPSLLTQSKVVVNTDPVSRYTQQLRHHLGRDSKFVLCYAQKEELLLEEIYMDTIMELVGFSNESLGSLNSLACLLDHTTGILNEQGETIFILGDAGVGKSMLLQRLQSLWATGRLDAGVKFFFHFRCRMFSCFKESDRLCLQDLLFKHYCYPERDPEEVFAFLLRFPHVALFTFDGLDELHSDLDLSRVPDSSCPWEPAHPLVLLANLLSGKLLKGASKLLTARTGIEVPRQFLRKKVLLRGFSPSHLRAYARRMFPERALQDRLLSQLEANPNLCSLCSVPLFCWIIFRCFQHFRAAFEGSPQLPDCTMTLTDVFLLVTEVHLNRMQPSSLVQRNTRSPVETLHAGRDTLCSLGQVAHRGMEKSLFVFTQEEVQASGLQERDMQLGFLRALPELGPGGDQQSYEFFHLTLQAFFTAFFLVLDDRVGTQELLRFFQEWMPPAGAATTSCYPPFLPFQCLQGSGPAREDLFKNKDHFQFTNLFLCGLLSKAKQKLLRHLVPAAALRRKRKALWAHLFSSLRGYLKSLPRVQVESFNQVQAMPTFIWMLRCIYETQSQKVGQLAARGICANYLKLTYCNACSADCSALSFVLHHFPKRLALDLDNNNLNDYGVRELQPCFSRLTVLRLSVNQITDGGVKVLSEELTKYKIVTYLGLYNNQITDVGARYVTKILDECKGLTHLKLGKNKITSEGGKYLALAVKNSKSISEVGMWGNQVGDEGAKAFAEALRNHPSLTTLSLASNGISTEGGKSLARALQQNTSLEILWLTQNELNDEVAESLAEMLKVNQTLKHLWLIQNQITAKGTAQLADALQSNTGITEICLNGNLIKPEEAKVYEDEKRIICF
# Assay: Microscale thermophoresis (MST) binding to purified NOD1-GFP
# Description: The lysates were incubated with 2 ml GFP‐Trap agarose at 4°C for 4 h. The agarose was collected with Poly‐Prep columns by gravity flow. […] To remove heat shock proteins, columns were further washed with 50 ml wash buffer III (50 mM Tris–HCl, pH 7.5, 150 mM NaCl, 5 mM MgCl2+, 1 mM ATP). To elute the proteins, the agarose was mixed with 2 ml elution buffer (100 mM Glycine, pH 2.5) for 1 min and the eluted proteins were immediately neutralized with 0.2 ml of 1 M Tris, pH 10.5.
smiles,measurement,setting,value
"CCCCCCCCCCCCC/C=C/[C@@H](O)[C@@H](N)COP(=O)(O)O [S1P, sphingosine‐1‐phosphate]",Kd,"Fig 6D, one representative experiment, read-out: Kd (NOD1/ligand)",2090 ± 770 nM
same,Kd,"Fig EV5B, purified NOD1, read-out: Kd (NOD1/ligand)",2290 ± 1970 nM
same,Kd,"Kd value of S1P interacting with NOD1, as stated in text",~2000 nM
same,Kd,"Kd(NOD1: S1P), Fig 7C, S1P alone",1740 ± 430 nM
same,Kd,"Kd(NOD1 WT: S1P), Fig 7E",2200 ± 510 nM
